Laboratory results as given in patent US20260325487A1 (BS BIOTECHNA SPOLKA AKCYJNA, priority 2023, published 2026).

Key:
Assay type in all cases: cell-based
[1] = test system: LUDLU-1; experiment: SRB anti-proliferative assay, LUDLU-1, with CalcuSyn combination index (Example 1); details: Homo sapiens, LUDLU-1, 72 h, read-out: Zah. (inhibition of proliferation)
Method: (§1) Cells were thawed from ampoules stored in liquid nitrogen and cultured in petri dishes in appropriate culture medium according to Table 2, in a humidified 5% CO2 atmosphere at 37° C. Cells were passaged twice weekly using EDTA-Trypsin solution, pH 8. Counted cells with a viability of at least 90% as assessed with Trypan-Blue solution were used for anti-proliferative assays.
(§2) Twenty-four hours before the addition of the test compounds/combinations, cells were seeded into 384-well plates at 50 μL/well and a density of 10^3 cells/well, in the appropriate culture medium.
(§3) Solutions of the compounds were diluted in the test medium-RPMI-1640 and Opti-MEM in a 1:1 ratio, and the medium was supplemented with 2 mM glutamine and 5% fetal bovine serum FBS. After 72 h, colourimetric assessment of cell growth was performed by SRB. […] Unbound dye was removed by washing the plates (4×) in 1% (v/v) acetic acid, and protein-bound dye was extracted with 10 mM unbuffered Tris base and the optical density (A=540 nm) was determined in a BioTek Synergy H4 Hybrid computer microplate reader (BioTek Instruments USA). The entire washing/staining procedure was performed using a BioTek EL406 washing station (BioTek Instruments USA). The raw absorbance results were analysed in Microsoft Excel software using the formula:
(§4) [formula] • Where: • % Zahlnh-inhibition of proliferation • Am—absorbance of wells without cells (medium) • Ak—absorbance of control wells (cells treated with pure culture medium) • Ap—absorbance of wells treated with compounds
(§5) Each compound at the indicated concentrations was tested in triplicate in one experiment. Each experiment was repeated three times. Data analysis was supplemented with synergy assessment using CalcuSyn software. […] A CI value below 0.8 indicates synergism, 0.8-1.2 an additive effect, above 1.2 an antagonism.

[2] = test system: SK-MES-1; experiment: SRB anti-proliferative assay, SK-MES-1, with CalcuSyn combination index (Example 1); details: Homo sapiens, SK-MES-1, 72 h, read-out: Zah. (inhibition of proliferation)
Method: as §1, §2, §3, §4, §5

[3] = test system: SK-MEL3; experiment: SRB anti-proliferative assay, SK-MEL3, with CalcuSyn combination index (Example 1); details: Homo sapiens, SK-MEL3, 72 h, read-out: Zah. (inhibition of proliferation)
Method: as §1, §2, §3, §4, §5

[4] = test system: A375; experiment: SRB anti-proliferative assay, A375, with CalcuSyn combination index (Example 1); details: Homo sapiens, A-375, 72 h, read-out: Zah. (inhibition of proliferation)
Method: as §1, §2, §3, §4, §5

[5] = test system: LN229; experiment: SRB anti-proliferative assay, LN229, with CalcuSyn combination index (Example 1); details: Homo sapiens, LN-229, 72 h, read-out: Zah. (inhibition of proliferation)
Method: as §1, §2, §3, §4, §5

[6] = test system: LN229; experiment: SRB anti-proliferative assay, LN229, molecular combination and nanoparticles, with combination index (Example III); details: Homo sapiens
Method: (§6) Cells were thawed from ampoules stored in liquid nitrogen and cultured in petri dishes in the appropriate culture medium according to Table 16, in a humidified 5% CO2 atmosphere at 37° C. Cells were passaged twice weekly using EDTA-Trypsin solution, pH 8, as a separating agent. Counted cells with a viability of at least 90% as assessed with Trypan-Blue solution were used for anti-proliferation assays.
(§7) Twenty-four hours before the addition of the test compounds/combinations, cells were seeded into 384-well plates at 50 μL/well and a density of 10^3 cells/well, in the appropriate culture medium. […] Solutions of the compounds were diluted in the test medium—RPMI-1640 and Opti-MEM in a 1:1 ratio, and the medium was supplemented with 2 mM glutamine and 5% fetal bovine serum FBS.
(§8) After 72 h, colourimetric assessment of cell growth was performed by SRB. […] Unbound dye was removed by washing the plates (4×) in 1% (v/v) acetic acid, and protein-bound dye was extracted with 10 mM unbuffered Tris base and the optical density (A=540 nm) was determined in a BioTek Synergy H4 Hybrid computer microplate reader (BioTek Instruments USA). The entire washing/staining procedure was performed using a BioTek EL406 washing station (BioTek Instruments USA). The raw absorbance results were analysed in Microsoft Excel software using the formula:
as §4, §5

[7] = test system: LUDLU-1; experiment: SRB anti-proliferative assay, LUDLU-1, molecular combination and nanoparticles, with combination index (Example III); details: Homo sapiens, LUDLU-1, read-out: Zah. (inhibition of cell proliferation)
Method: as §6, §7, §8, §4, §5

[8] = test system: SKMES-1; experiment: SRB anti-proliferative assay, SKMES-1, molecular combination and nanoparticles, with combination index (Example III); details: Homo sapiens, SK-MES-1, read-out: Inhibition of cell proliferation (Zah.)
Method: as §6, §7, §8, §4, §5

[9] = LN-229, 72 h, read-out: Zah. (inhibition of proliferation)
[10] = LN-229, read-out: Zah. (inhibition of cell proliferation)

SMILES: C=CCNC1=C2C[C@@H](C)C[C@H](OC)[C@H](O)[C@@H](C)/C=C(\C)[C@H](OC(N)=O)[C@@H](OC)/C=C\C=C(/C)C(=O)NC(=CC1=O)C2=O [17AAG, 17-AAG (tanespimycin)]
- inhibition at 0.0031 µM [1]: 6.1%
- inhibition at 0.01 µM [1]: 20.4%
- inhibition at 0.0314 µM [1]: 47.8%
- inhibition at 0.1 µM [1]: 66.9%
- inhibition at 0.3139 µM [1]: 74.1%
- inhibition at 1 µM [1]: 78.6%
- inhibition at 3.1546 µM [1]: 83.3%
- inhibition at 10 µM [1]: 86.3%
- inhibition at 0.0031 µM [2]: 9.2%
- inhibition at 0.01 µM [2]: 12.7%
- inhibition at 0.03 µM [2]: 55.1%
- inhibition at 0.1 µM [2]: 80%
- inhibition at 0.3124 µM [2]: 85.2%
- inhibition at 1 µM [2]: 86.5%
- inhibition at 3.1392 µM [2]: 86.9%
- inhibition at 10 µM [2]: 87%
- inhibition at 0.0031 µM [3]: 1.1%
- inhibition at 0.01 µM [3]: 14%
- inhibition at 0.0314 µM [3]: 40.3%
- inhibition at 0.1 µM [3]: 48.5%
- inhibition at 0.3155 µM [3]: 58.1%
- inhibition at 1 µM [3]: 58.5%
- inhibition at 3.1546 µM [3]: 60.7%
- inhibition at 10 µM [3]: 76.6%
- inhibition at 0.0031 µM [4]: 24.1%
- inhibition at 0.01 µM [4]: 53.3%
- inhibition at 0.0314 µM [4]: 83.2%
- inhibition at 0.1 µM [4]: 89.2%
- inhibition at 0.3155 µM [4]: 91.6%
- inhibition at 1 µM [4]: 96.3%
- inhibition at 3.1546 µM [4]: 97.1%
- inhibition at 10 µM [4]: 97%
- inhibition at 0.0032 µM [5]: 3.3%
- inhibition at 0.01 µM [5]: 3.1%
- inhibition at 0.0316 µM [5]: 18.4%
- inhibition at 0.1 µM [5]: 28.9%
- inhibition at 0.3163 µM [5]: 38.7%
- inhibition at 1 µM [5]: 62.9%
- inhibition at 3.1625 µM [5]: 71.6%
- inhibition at 10.0005 µM [5]: 81.5%
- inhibition at 0.0032 µM [6, 9]: 3.3%
- inhibition at 0.01 µM [6, 9]: 3.1%
- inhibition at 0.0316 µM [6, 9]: 18.4%
- inhibition at 0.1 µM [6, 9]: 28.9%
- inhibition at 0.3163 µM [6, 9]: 38.7%
- inhibition at 1 µM [6, 9]: 62.9%
- inhibition at 3.1625 µM [6, 9]: 71.6%
- inhibition at 10.0005 µM [6, 9]: 81.5%
- inhibition at 0.0032 µM [6, 10]: 3.3%
- inhibition at 0.01 µM [6, 10]: 3.1%
- inhibition at 0.0316 µM [6, 10]: 18.4%
- inhibition at 0.1 µM [6, 10]: 28.9%
- inhibition at 0.3163 µM [6, 10]: 38.7%
- inhibition at 1 µM [6, 10]: 62.9%
- inhibition at 3.1625 µM [6, 10]: 71.6%
- inhibition at 10.0005 µM [6, 10]: 81.5%
- inhibition at 0.0003163 µM [7]: 3.9%
- inhibition at 0.001 µM [7]: 29.3%
- inhibition at 0.0032 µM [7]: 61.9%
- inhibition at 0.01 µM [7]: 75.1%
- inhibition at 0.0316 µM [7]: 60.2%
- inhibition at 0.1 µM [7]: 65.7%
- inhibition at 0.3163 µM [7]: 76.9%
- inhibition at 1 µM [7]: 80.2%
- inhibition at 0.0003163 µM [8]: 2.2%
- inhibition at 0.001 µM [8]: 46.7%
- inhibition at 0.0032 µM [8]: 86.7%
- inhibition at 0.01 µM [8]: 90.6%
- inhibition at 0.0316 µM [8]: 85.1%
- inhibition at 0.1 µM [8]: 87.9%
- inhibition at 0.3163 µM [8]: 89.3%
- inhibition at 1 µM [8]: 89.1%
